In assay [1] the test system is cap-dependent translation (eIF4E-dependent). Kind of assay: Effect of the peptides on translation of capped luciferase mRNA in rabbit reticulocyte lysate. Format: biochemical. Particulars: 50 μM peptide, compared with DMSO = 100%, FIG. 2. Here is the method: The peptides having the IRS motif and the sequences of 4EBPlike type (A1WT, BPSgWT, and BP2WT) or the mutant sequences of 4EPBlike type (A1YALA, BPSgYALA, BP2YALA) are incubated in rabbit reticulocyte lysate containing capped mRNAs encoding luciferase, an enzyme of which the activity can be easily assayed. The translational activity is directly proportional to the activity of the luciferase produced. The translational activity in the presence of peptide is compared with that obtained during the addition of an equivalent volume of DMSO, considered to be 100%.
The peptides were produced, purified by HPLC (purity>95%), and freeze-dried by Thermofisher Scientific. The peptides were then dissolved at 10 mM in DMSO.
The capped mRNAs encoding Renilla luciferase (Luc R) were produced by the T7 Message Machine Kit system (Ambion) from the pGb-Eg2-410Δ2-hxG-A65 plasmid linearized with EcoRV (Legagneux V, Omilli F, Osborne HB (1995) Substrate-specific regulation of RNA deadenylation in Xenopus embryo and activated egg extracts. RNA 1: 1001-1008).
The Luc R mRNAs were translated for one hour at 30° C. in rabbit reticulocyte lysate (Flexi Rabbit Reticulocyte Lysate System, Promega) in the presence of 50 μM of peptide. The luciferase activity was determined using the Renilla luciferase assay (Promega) on the Tristar LB941 luminometer (Berthold).
A capped mRNA (having a cap at the 5′ end) encoding luciferase, a protein which can be easily assayed by measuring its activity, was translated in the presence of these various peptides in rabbit reticulocyte lysate (FIG. 2). The luciferase activity measured is directly proportional to the amount of luciferase protein produced and therefore to the cap-dependent translational activity. Since the peptides are dissolved in DMSO, it was important to test the effect of DMSO on the translation. […] The translational activity in the presence of peptide was compared with that obtained when an equal volume of DMSO is added, considered to be equal to 100%.

Assay [2] has as its system B lymphocytes from patients suffering from chronic lymphoid leukemia (CLL). Particulars: for effect on percentage cell survival / cell effect CLL 40 (survival): 40 μM peptide; for effect on percentage cell survival: 4 H and 24 H, FIG. 3; for cell effect CLL 40 (survival): 4 hours of culture, cells not labeled with annexin or propidium iodide; for effect of the peptide on cell mortality, in words (relative to A1 WT IRS): 40 μM, 4 hours, FIG. 9; for action of the peptide on cell survival, in words, cell type not given: Example 6 (CLL cells, control T lymphocytes, Jok cells). As for the experimental part:
Peripheral blood B lymphocytes taken from patients suffering from CLL and then purified on a Ficoll cushion and placed in culture are incubated in the presence of […] of the peptides described for FIG. 2. The percentage cell survival after 4 hours (gray column) or 24 hours (white column) of culture corresponds to the percentage of cells labeled neither with annexin nor with propidium iodide, evaluated by flow cytometry.
The CLL B lymphocytes were obtained from peripheral blood of 18 different patients suffering from chronic lymphoid leukemia. […] The samples were taken in the Brest hospital center, in the hematology department. The blood samples were taken after informing the patients and obtaining their informed consent.
The lymphocytes, mononuclear cells, were isolated from the heparinized peripheral blood samples by Ficoll-Hypaque (LSM 1077 lymphocyte, euro-bio) centrifugation. The red blood cells were lyzed by incubation for 10 min in VersaLyse Lysing Solution (Beckman Coulter). The mononuclear cells are obtained after 2 washes in culture medium (RPMI1640, Gibco BRL).
(§1) The cells were cultured in a culture medium composed either of RPMI 1640 (B lymphocytes) or of DMEM (COS7, HCT116, HGT1, 293, HeLa) containing 10% of FCS (fetal calf serum, 1% of penicillin-streptomycin and 1% of glutamine, Gibco BRL). The cells are distributed in a 24-well plate and cultured at 37° C. in a humid atmosphere under 5% CO2.
(§2) 400 μl of cell suspension (1×10^6 cells/ml) per well were treated for 4 h or 24 h with various concentrations of peptides. The test for activity of the peptides in the presence of emetine (FIG. 6) was carried out by preincubating the cells with 100 μM of emetine for one hour before the addition of peptide.
(§3) After the cells have been washed with PBS, they were analyzed using the Annexin V-FITC IP system according to the supplier's recommendations (Beckman Coulter).
The cells taken from patients suffering from chronic lymphoid leukemia were purified on a Ficoll cushion. […] The cells were placed in culture in RPMI medium in the presence of 10% FCS (fetal calf serum). The peptides were added directly to the culture medium. These peptides comprise the IRS sequence (the amino acid sequence of which is RYIRS) which is known to allow the penetration of peptides into B lymphocytes in culture (Dong et al., 2005). […] The cells which survive the treatment are those which are labeled neither with annexin nor with propidium iodide.

The test system of assay [3] is Jok cells (cell line derived from B lymphocytes). Kind of assay: Cell survival of Jok cells, annexin/propidium iodide flow cytometry. The assay is classed as cell-based, human. Particulars: for cell effect Jok 20 (survival): 20 μM peptide; for cell effect Jok 20 (survival) / cell effect Jok 40 (survival): 4 hours of culture, cells not labeled with annexin or propidium iodide; for cell effect Jok 40 (survival): 40 μM peptide; for effect of the peptide on cell mortality, in words (relative to A1 WT IRS): concentration not given (20 or 40 μM), 4 hours, FIG. 9. As for the experimental part: The cells are treated as indicated for FIG. 7, with the CLL cells, control T lymphocytes and Jok lymphocytes, which are incubated with the A1 WT IRS peptide and derivatives thereof described in table 1. The Jok cells were incubated either with 20 μM (JOK 20) or with 40 μM (JOK 40) of each of the peptides. In the interests of simplifying the legend, the A1 WT IRS peptide is referred to as “WT”. Likewise, the derivatives thereof are referred to by the name of the mutations (A1 K3I IRS is referred to as “K3I”, for example).
as §1, §2, §3
The peptides were tested on B lymphocytes from patients suffering from chronic lymphoid leukemia, control T lymphocytes, or Jok cells (cell line derived from B lymphocytes). The experiment was repeated three times for each type of cell tested.

The subject of assay [4] is control T lymphocytes (patients suffering from hemochromatosis). Kind of assay: Cell survival of control T lymphocytes, annexin/propidium iodide flow cytometry. The assay is classed as cell-based, human. Particulars: 40 μM peptide, 4 hours of culture, cells not labeled with annexin or propidium iodide. Here is the method:
FIG. 7: Activity of the A1WT peptide on cells of lymphocytic, lymphoid, gastric, colonic or renal origin The cells are prepared and placed in culture (see Materials and Methods) and then incubated for 4 H with the A1WT or A1 YALA peptide. The percentage cell survival corresponds to the percentage of cells labeled neither with annexin nor with propidium iodide, evaluated by flow cytometry. The names of the pathological conditions from which the patients from whom the samples are taken are suffering are indicated under the figure. The control T (L.T.) and B (L.B.) lymphocytes are taken from patients suffering from a disease not related to a lymphocytic pathological condition (hemochromatosis).
The control B lymphocytes and T lymphocytes originate from peripheral blood samples from patients suffering from hemochromatosis, provided by the CTS transfusion center in Brest. The B and T lymphocytes were isolated using the Rosett-Sep kit (Stemcell Technologies) according to the supplier's recommendations.
as §1, §2, §3
(In general: Flow cytometry measures light scatter and fluorescence of single cells or particles in a stream.)

Assay [5] has the same test system. Described as above. Particulars: 40 μM, 4 hours; FIG. 9. Format: cell-based, human.

On to “RIIADRKFAADRRYIRS [BP2 YALA IRS, YALA mutant control of BP2 WT IRS]”, for which the “inhibition of translation (luciferase activity)” value (“inhibition of translation” below) in assay [1] was “does not cause any inhibition of the translation”.

Consider “RIIYDRKFLLDRRYIRS [BP2 WT IRS, reference compound]”, for which, in assay [2], the “effect on percentage cell survival” value is on record as “the percentage survival did not decrease”; the “cell effect CLL 40 (survival)” value was “− (−: survival >50%)”; the “effect of the peptide on cell mortality, in words (relative to A1 WT IRS)” value (from here on “effect of the peptide … (relative to A1 WT IRS)”) was “has no effect”; the “action of the peptide on cell survival, in words, cell type not given” value is recorded as “has no effect on cell survival”. In assay [3], the “cell effect Jok 20 (survival)” value was “− (−: survival >50%)”; the “cell effect Jok 40 (survival)” value was “− (−: survival >50%)”; the “effect of the peptide … (relative to A1 WT IRS)” value was “has no effect”. In assay [1], the “inhibition of translation” value was “strong inhibition of the translation”. Moreover, in assay [1] (listed as BP2), the “inhibition of translation” value was “effectively inhibits eIF4E-dependent translation”.

For “RRKAGRDFAARFRYIRS [A1 YALA IRS, reference compound]”, in assay [2], the “effect on percentage cell survival” value is on record as “has no effect”; the “cell effect CLL 40 (survival)” value is recorded as “− (−: survival >50%)”; the “action of the peptide on cell survival, in words, cell type not given” value was “has no effect”. Besides, the “cell effect LT 40 (survival)” value in assay [4] is “− (−: survival >50%)”. For the same sequence, in assay [3], the “cell effect Jok 20 (survival)” value is given as “− (−: survival >50%)” and the “cell effect Jok 40 (survival)” value was “− (−: survival >50%)”. For the same sequence, the “inhibition of translation” value in assay [1] is “does not inhibit the translation”.

For the sequence RRKYGREFLLRFRYIRS [A1 D7E IRS], in assay [2], the “cell effect CLL 40 (survival)” value was “+ (+: survival <25%)” and the “effect of the peptide … (relative to A1 WT IRS)” value is recorded as “does not modify the action”. The “cell effect LT 40 (survival)” value in assay [4] is on record as “+ (+: survival <25%)”. Moreover, in assay [3], the “cell effect Jok 20 (survival)” value is given as “+ (+: survival <25%)”; the “cell effect Jok 40 (survival)” value is listed as “+ (+: survival <25%)”; the “effect of the peptide … (relative to A1 WT IRS)” value was “its effect is potentiated”. Besides, the “effect of the peptide … (relative to A1 WT IRS)” value in assay [5] is on record as “does not modify the action”.

On to RRKYSRDFLLRFRYIRS [A1 G5S IRS], for which, in assay [2], the “cell effect CLL 40 (survival)” value was “+ (+: survival <25%)” and the “effect of the peptide … (relative to A1 WT IRS)” value is reported as “slightly increases the effect”. Besides, the “cell effect LT 40 (survival)” value in assay [4] is reported as “+ (+: survival <25%)”. Besides, in assay [3], the “cell effect Jok 20 (survival)” value is listed as “+ (+: survival <25%)”; the “cell effect Jok 40 (survival)” value is recorded as “+ (+: survival <25%)”; the “effect of the peptide … (relative to A1 WT IRS)” value is “slightly increases the effect”. Also, the “effect of the peptide … (relative to A1 WT IRS)” value in assay [5] is “slightly increases the effect”.

For RRRYGRDFLLRFRYIRS [A1 K3R IRS], in assay [2], the “cell effect CLL 40 (survival)” value is recorded as “+ (+: survival <25%)” and the “effect of the peptide … (relative to A1 WT IRS)” value was “does not modify the effect”. In assay [4], the “cell effect LT 40 (survival)” value was “+ (+: survival <25%)”. For the same sequence, in assay [3], the “cell effect Jok 20 (survival)” value is listed as “+ (+: survival <25%)”; the “cell effect Jok 40 (survival)” value is “+ (+: survival <25%)”; the “effect of the peptide … (relative to A1 WT IRS)” value is “does not modify the effect”. In assay [5], the “effect of the peptide … (relative to A1 WT IRS)” value was “does not modify the effect”.

(Values after patent US9745357B2, “Peptides used for treating cancers and, in particular, chronic lymphoid leukaemia” (Centre National de la Recherche Scientifique, priority 2009, dated 2017).)
